Source: patent publication US20240300932A1, “N-PHENYLIMINE DERIVATIVE AND PREPARATION METHOD AND USE THEREOF” (Guizhou University, priority 2023, published 2024)

Legend:
Experiment in all cases: Post-emergence herbicidal activity test (stem and leaf spray, pot culture)
Type in all cases: in vivo
Conditions in all cases: 3 weeks after spraying
Abutilon theophrasti = tested on: Abutilon theophrasti
How it was run: (§1)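 Graded 0–5 on fresh-weight growth control rate 3 weeks after a single spray-tower application at 10, 5 or 2.5 g/mu. Compounds in acetone with Tween 80 and methyl oleate synergist (1.5 liters/ha), applied to greenhouse weeds at 2- to 3-leaf stage.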

Amaranthus retroflexus = tested on: Amaranthus retroflexus
How it was run: as §1

Echinochloa crusgalli = tested on: Echinochloa crusgalli
How it was run: as §1

Portulaca oleracea = tested on: Portulaca oleracea
How it was run: as §1

Setaria viridis = tested on: Setaria viridis
How it was run: as §1

Trifoliumre pensL. = tested on: Trifoliumre pensL.
How it was run: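 Pot-grown weeds in loam (pH 7), greenhouse at 20–30 °C, sprayed once post-emergence at the 2–3-leaf stage. Compound in acetone with Tween 80 plus methyl oleate oil (1.5 L/ha), applied at 10, 5 and 2.5 g/mu by spray tower. Effect scored 3 weeks after spraying, averaged over three repeats.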

Compound | Post-emergence herbicidal activity, A. theophrasti (grade) (Abutilon theophrasti; dosage 2.5 g/mu) | Post-emergence herbicidal activity, A. theophrasti (grade) (Abutilon theophrasti; dosage 5 g/mu) | Post-emergence herbicidal activity, A. theophrasti (grade) (Abutilon theophrasti; dosage 10 g/mu) | Post-emergence herbicidal activity, A. retroflexus (grade) (Amaranthus retroflexus; dosage 2.5 g/mu) | Post-emergence herbicidal activity, A. retroflexus (grade) (Amaranthus retroflexus; dosage 5 g/mu) | Post-emergence herbicidal activity, A. retroflexus (grade) (Amaranthus retroflexus; dosage 10 g/mu) | Post-emergence herbicidal activity, E. crusgalli (grade) (Echinochloa crusgalli; dosage 2.5 g/mu) | Post-emergence herbicidal activity, E. crusgalli (grade) (Echinochloa crusgalli; dosage 5 g/mu) | Post-emergence herbicidal activity, E. crusgalli (grade) (Echinochloa crusgalli; dosage 10 g/mu) | Post-emergence herbicidal activity, P. oleracea (grade) (Portulaca oleracea; dosage 2.5 g/mu) | Post-emergence herbicidal activity, P. oleracea (grade) (Portulaca oleracea; dosage 5 g/mu) | Post-emergence herbicidal activity, P. oleracea (grade) (Portulaca oleracea; dosage 10 g/mu) | Post-emergence herbicidal activity, S. viridis (grade) (Setaria viridis; dosage 2.5 g/mu) | Post-emergence herbicidal activity, S. viridis (grade) (Setaria viridis; dosage 5 g/mu) | Post-emergence herbicidal activity, S. viridis (grade) (Setaria viridis; dosage 10 g/mu) | Post-emergence herbicidal activity, Trifoliumre pensL. (grade) (Trifoliumre pensL.; dosage 2.5 g/mu) | Post-emergence herbicidal activity, Trifoliumre pensL. (grade) (Trifoliumre pensL.; dosage 5 g/mu) | Post-emergence herbicidal activity, Trifoliumre pensL. (grade) (Trifoliumre pensL.; dosage 10 g/mu)
O=C1C2=C(CCCC2)C(=O)N1c1cc(OCc2nnc(-c3ccccc3I)o2)c(Cl)cc1F [Compound B7] | 5 (Grade 5: the growth control rate is greater than or equal to 85%) | 5 (Grade 5: the growth control rate is greater than or equal to 85%) | 5 (Grade 5: the growth control rate is greater than or equal to 85%) | 5 (Grade 5: the growth control rate is greater than or equal to 85%) | 5 (Grade 5: the growth control rate is greater than or equal to 85%) | 5 (Grade 5: the growth control rate is greater than or equal to 85%) | 1 (Grade 1: the growth control rate is greater than or equal to 5% and less than 20%) | 2 (Grade 2: the growth control rate is greater than or equal to 20% and less than 40%) | 3 (Grade 3: the growth control rate is greater than or equal to 40% and less than 60%) | 5 (Grade 5: the growth control rate is greater than or equal to 85%) | 5 (Grade 5: the growth control rate is greater than or equal to 85%) | 5 (Grade 5: the growth control rate is greater than or equal to 85%) | 2 (Grade 2: the growth control rate is greater than or equal to 20% and less than 40%) | 3 (Grade 3: the growth control rate is greater than or equal to 40% and less than 60%) | 4 (Grade 4: the growth control rate is greater than or equal to 60% and less than 85%) | 5 (Grade 5: the growth control rate is greater than or equal to 85%) | 5 (Grade 5: the growth control rate is greater than or equal to 85%) | 5 (Grade 5: the growth control rate is greater than or equal to 85%)
O=C1C2=C(CCCC2)C(=O)N1c1cc(OCc2nnc(-c3ccccc3[N+](=O)[O-])o2)c(Cl)cc1F [Compound B8] | 5 (Grade 5: the growth control rate is greater than or equal to 85%) | 5 (Grade 5: the growth control rate is greater than or equal to 85%) | 5 (Grade 5: the growth control rate is greater than or equal to 85%) | 5 (Grade 5: the growth control rate is greater than or equal to 85%) | 5 (Grade 5: the growth control rate is greater than or equal to 85%) | 5 (Grade 5: the growth control rate is greater than or equal to 85%) | 1 (Grade 1: the growth control rate is greater than or equal to 5% and less than 20%) | 2 (Grade 2: the growth control rate is greater than or equal to 20% and less than 40%) | 3 (Grade 3: the growth control rate is greater than or equal to 40% and less than 60%) | 5 (Grade 5: the growth control rate is greater than or equal to 85%) | 5 (Grade 5: the growth control rate is greater than or equal to 85%) | 5 (Grade 5: the growth control rate is greater than or equal to 85%) | 2 (Grade 2: the growth control rate is greater than or equal to 20% and less than 40%) | 3 (Grade 3: the growth control rate is greater than or equal to 40% and less than 60%) | 4 (Grade 4: the growth control rate is greater than or equal to 60% and less than 85%) | 5 (Grade 5: the growth control rate is greater than or equal to 85%) | 5 (Grade 5: the growth control rate is greater than or equal to 85%) | 5 (Grade 5: the growth control rate is greater than or equal to 85%)
O=C1C2=C(CCCC2)C(=O)N1c1cc(OCc2nnc(-c3cccc(Br)c3)o2)c(Cl)cc1F [Compound B10] | 4 (Grade 4: the growth control rate is greater than or equal to 60% and less than 85%) | 5 (Grade 5: the growth control rate is greater than or equal to 85%) | 5 (Grade 5: the growth control rate is greater than or equal to 85%) | 4 (Grade 4: the growth control rate is greater than or equal to 60% and less than 85%) | 5 (Grade 5: the growth control rate is greater than or equal to 85%) | 5 (Grade 5: the growth control rate is greater than or equal to 85%) | 1 (Grade 1: the growth control rate is greater than or equal to 5% and less than 20%) | 2 (Grade 2: the growth control rate is greater than or equal to 20% and less than 40%) | 3 (Grade 3: the growth control rate is greater than or equal to 40% and less than 60%) | 5 (Grade 5: the growth control rate is greater than or equal to 85%) | 5 (Grade 5: the growth control rate is greater than or equal to 85%) | 5 (Grade 5: the growth control rate is greater than or equal to 85%) | 2 (Grade 2: the growth control rate is greater than or equal to 20% and less than 40%) | 3 (Grade 3: the growth control rate is greater than or equal to 40% and less than 60%) | 4 (Grade 4: the growth control rate is greater than or equal to 60% and less than 85%) | 5 (Grade 5: the growth control rate is greater than or equal to 85%) | 5 (Grade 5: the growth control rate is greater than or equal to 85%) | 5 (Grade 5: the growth control rate is greater than or equal to 85%)
O=C1C2=C(CCCC2)C(=O)N1c1cc(OCc2nnc(-c3cccc(I)c3)o2)c(Cl)cc1F [Compound B11] | 4 (Grade 4: the growth control rate is greater than or equal to 60% and less than 85%) | 5 (Grade 5: the growth control rate is greater than or equal to 85%) | 5 (Grade 5: the growth control rate is greater than or equal to 85%) | 4 (Grade 4: the growth control rate is greater than or equal to 60% and less than 85%) | 5 (Grade 5: the growth control rate is greater than or equal to 85%) | 5 (Grade 5: the growth control rate is greater than or equal to 85%) | 1 (Grade 1: the growth control rate is greater than or equal to 5% and less than 20%) | 2 (Grade 2: the growth control rate is greater than or equal to 20% and less than 40%) | 3 (Grade 3: the growth control rate is greater than or equal to 40% and less than 60%) | 5 (Grade 5: the growth control rate is greater than or equal to 85%) | 5 (Grade 5: the growth control rate is greater than or equal to 85%) | 5 (Grade 5: the growth control rate is greater than or equal to 85%) | 2 (Grade 2: the growth control rate is greater than or equal to 20% and less than 40%) | 3 (Grade 3: the growth control rate is greater than or equal to 40% and less than 60%) | 4 (Grade 4: the growth control rate is greater than or equal to 60% and less than 85%) | 5 (Grade 5: the growth control rate is greater than or equal to 85%) | 5 (Grade 5: the growth control rate is greater than or equal to 85%) | 5 (Grade 5: the growth control rate is greater than or equal to 85%)
